Assay results as given in PMC8880997, “Structure and ion-release mechanism of PIB-4-type ATPases” (eLife, 2021).

Key:
[1] = target: T1, sCoaT (Sulfitobacter sp. NAS-14.1, UniProt A0ABF7PH95); set-up: gene NAS141_02821; conditions: phosphate analogue at the phosphorylation site; formed from BeSO4 and NaF with EGTA, metal-free; late E2P state
T1 sequence (A0ABF7PH95 1-682): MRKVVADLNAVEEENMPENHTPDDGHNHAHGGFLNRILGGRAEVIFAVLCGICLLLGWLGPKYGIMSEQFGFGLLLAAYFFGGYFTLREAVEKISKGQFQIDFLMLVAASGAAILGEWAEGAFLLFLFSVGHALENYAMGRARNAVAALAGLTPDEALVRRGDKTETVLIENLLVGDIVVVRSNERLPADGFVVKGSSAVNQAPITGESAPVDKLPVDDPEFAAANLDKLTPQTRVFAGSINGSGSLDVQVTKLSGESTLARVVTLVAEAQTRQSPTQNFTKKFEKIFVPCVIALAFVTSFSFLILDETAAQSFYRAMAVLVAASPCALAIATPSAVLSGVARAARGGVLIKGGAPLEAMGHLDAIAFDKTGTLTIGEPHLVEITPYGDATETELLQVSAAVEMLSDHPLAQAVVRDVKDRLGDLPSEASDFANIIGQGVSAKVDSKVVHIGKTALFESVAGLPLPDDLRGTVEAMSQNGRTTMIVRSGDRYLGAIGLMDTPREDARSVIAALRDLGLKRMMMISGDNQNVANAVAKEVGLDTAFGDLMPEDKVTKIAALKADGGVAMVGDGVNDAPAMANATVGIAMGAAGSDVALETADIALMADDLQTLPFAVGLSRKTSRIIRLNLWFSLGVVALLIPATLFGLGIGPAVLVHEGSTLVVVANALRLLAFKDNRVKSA

[2] = target: T1, sCoaT; test: X-ray crystallography, […]-3.[…] Å; assay type: binding; set-up: gene NAS141_02821; residues before about 40-47 not modelled; conditions: phosphate analogue at the phosphorylation site; formed from AlCl3 and NaF with EGTA, metal-free; E2.Pi state
[3] = target: T2, SsZntA (Shigella sonnei, UniProt Q3YW59); test: Baginski ATPase assay (Pi release) in lipid-detergent; assay type: biochemical; conditions: 5 mM ATP, Zn2+ or Cd2+, 5 mM MgCl2, Tris-HCl pH 7.5, 37 °C; KCl titration
T2 construct: gene zntA; purified as in Wang et al., 2014
T2 sequence (Q3YW59 1-732): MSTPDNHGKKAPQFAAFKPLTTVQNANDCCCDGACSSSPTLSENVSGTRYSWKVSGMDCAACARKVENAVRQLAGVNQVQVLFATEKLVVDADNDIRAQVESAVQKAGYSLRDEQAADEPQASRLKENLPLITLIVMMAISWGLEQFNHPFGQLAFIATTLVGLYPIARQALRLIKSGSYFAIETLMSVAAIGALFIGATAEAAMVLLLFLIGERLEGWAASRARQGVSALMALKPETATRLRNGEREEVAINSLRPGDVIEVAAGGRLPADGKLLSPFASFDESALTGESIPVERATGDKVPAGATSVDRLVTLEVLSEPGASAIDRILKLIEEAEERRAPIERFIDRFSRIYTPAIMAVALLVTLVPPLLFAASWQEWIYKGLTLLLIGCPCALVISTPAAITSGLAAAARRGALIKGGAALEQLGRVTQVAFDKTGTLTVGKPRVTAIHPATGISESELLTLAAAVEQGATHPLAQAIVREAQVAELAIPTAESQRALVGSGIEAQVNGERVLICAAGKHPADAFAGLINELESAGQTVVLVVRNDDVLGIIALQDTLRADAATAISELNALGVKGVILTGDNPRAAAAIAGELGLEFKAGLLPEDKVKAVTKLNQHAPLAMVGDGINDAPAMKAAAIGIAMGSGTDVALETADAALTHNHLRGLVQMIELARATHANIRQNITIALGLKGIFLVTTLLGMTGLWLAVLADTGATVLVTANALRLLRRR

[F][Be-]([F])[F] [BeF3^−]
X-ray crystallography, 3.1 Å [1]: structures of sCoaT in metal-free conditions supplemented with two different phosphate analogues, BeF3^− and AlF4^−

[F][Al-]([F])([F])[F] [AlF4^−]
X-ray crystallography, 3.2-3.3 Å [2]: structures of sCoaT in metal-free conditions supplemented with two different phosphate analogues, BeF3^− and AlF4^−

Nc1ncnc2c1ncn2[C@@H]1O[C@H](COP(=O)(O)OP(=O)(O)OP(=O)(O)O)[C@@H](O)[C@H]1O [ATP]
Baginski ATPase assay (Pi release) in lipid-detergent [3]: Functional ATPase assay in lipid–detergent solution of sCoaT (wild-type and D601K forms) as well as SsZntA
